Measured values: ChEMBL document CHEMBL5154941, “Structural Modifications of Nimodipine Lead to Novel PDE1 Inhibitors with Anti-pulmonary Fibrosis Effects” (J Med Chem, 2022)

Biological target: Dual specificity calcium/calmodulin-dependent 3',5'-cyclic nucleotide phosphodiesterase 1C (Homo sapiens, UniProt Q14123)
Assay: Inhibition of PDE1C (147 to 531 residues) (unknown origin) expressed in Escherichia coli BL21 using [3H]-cGMP as substrate measured for 15 mins by liquid scintillation counter method

Sequence of Dual specificity calcium/calmodulin-dependent 3',5'-cyclic nucleotide phosphodiesterase 1C (Q14123 whole entry, the tested form may be a part): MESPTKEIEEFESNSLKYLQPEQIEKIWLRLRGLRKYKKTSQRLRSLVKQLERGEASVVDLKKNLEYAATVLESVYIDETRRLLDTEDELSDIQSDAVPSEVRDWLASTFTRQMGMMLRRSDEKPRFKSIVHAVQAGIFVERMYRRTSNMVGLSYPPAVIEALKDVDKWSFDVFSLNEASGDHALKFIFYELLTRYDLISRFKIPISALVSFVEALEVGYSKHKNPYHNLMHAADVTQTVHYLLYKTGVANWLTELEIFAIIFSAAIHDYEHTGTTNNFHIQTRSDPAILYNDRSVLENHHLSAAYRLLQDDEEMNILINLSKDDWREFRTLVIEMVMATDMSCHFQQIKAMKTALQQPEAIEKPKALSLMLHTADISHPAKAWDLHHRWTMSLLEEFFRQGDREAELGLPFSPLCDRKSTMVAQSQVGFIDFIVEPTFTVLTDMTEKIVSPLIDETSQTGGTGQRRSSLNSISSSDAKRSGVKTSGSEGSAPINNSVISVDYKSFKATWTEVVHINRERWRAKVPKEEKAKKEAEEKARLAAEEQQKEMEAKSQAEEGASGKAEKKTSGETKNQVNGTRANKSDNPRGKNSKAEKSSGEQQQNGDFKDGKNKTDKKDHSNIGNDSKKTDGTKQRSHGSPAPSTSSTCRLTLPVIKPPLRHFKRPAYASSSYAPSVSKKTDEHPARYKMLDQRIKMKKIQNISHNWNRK

- IC50: 1850 nM
SMILES: CCOC(=O)C1=C(C)NC(C)=C(C(=O)OC)C1c1cccc([N+](=O)[O-])c1 (stereo unspecified) [NITRENDIPINE]
